Target: T1, TTK (Homo sapiens, UniProt P33981)
T1 construct: purchased Thermo Fisher Scientific (Life Technologies) SelectScreen
Test: SelectScreen LanthaScreen
Type: binding
Settings: read-out: % displacement
Method in brief: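 SelectScreen broad panel; activity (Z'LYTE, Adapta) plus binding formats. ATP: Km app for CSF1R Z'LYTE; 10 for CAMK1 Adapta. Readout = % per kinase.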

T1 sequence (P33981 whole entry): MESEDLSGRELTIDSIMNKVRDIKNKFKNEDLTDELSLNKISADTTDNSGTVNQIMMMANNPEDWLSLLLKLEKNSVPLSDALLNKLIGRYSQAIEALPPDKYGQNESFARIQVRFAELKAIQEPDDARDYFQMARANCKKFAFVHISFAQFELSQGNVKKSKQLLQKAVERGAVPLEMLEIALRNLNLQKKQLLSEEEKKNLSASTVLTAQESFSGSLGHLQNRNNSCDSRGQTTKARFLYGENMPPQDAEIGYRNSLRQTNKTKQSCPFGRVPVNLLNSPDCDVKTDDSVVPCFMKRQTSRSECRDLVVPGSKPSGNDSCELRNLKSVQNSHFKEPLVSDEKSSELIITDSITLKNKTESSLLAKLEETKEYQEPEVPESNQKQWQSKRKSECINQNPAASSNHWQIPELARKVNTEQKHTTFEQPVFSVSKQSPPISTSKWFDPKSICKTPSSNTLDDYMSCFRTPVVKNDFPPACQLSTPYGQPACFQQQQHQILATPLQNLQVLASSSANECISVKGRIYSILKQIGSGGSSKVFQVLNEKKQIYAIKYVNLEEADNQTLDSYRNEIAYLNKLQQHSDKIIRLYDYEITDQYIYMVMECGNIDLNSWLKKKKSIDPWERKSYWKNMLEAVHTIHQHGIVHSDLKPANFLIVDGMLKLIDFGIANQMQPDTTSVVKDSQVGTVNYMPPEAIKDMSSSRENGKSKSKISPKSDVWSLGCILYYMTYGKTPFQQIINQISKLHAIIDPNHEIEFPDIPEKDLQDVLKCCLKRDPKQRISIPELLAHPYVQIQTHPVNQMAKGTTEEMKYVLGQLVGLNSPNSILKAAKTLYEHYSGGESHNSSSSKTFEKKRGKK

In the case of `CN(C(=O)CN1CCOCC1)c1ccc2sc3c(-c4cccc5c(=O)cc(N6CC7CCC(C6)O7)oc45)cccc3c2c1` [NU5455], the inhibition at 1 µM is reported as -0.7%.

Source: publication PMC6934184, “Selective DNA-PKcs inhibition extends the therapeutic index of localized radiotherapy and chemotherapy” (The Journal of Clinical Investigation, 2019)
